Assay results as given in ChEMBL document CHEMBL1154038, “Discovery of orally active, pyrrolidinone-based progesterone receptor partial agonists” (Bioorg Med Chem Lett, 2009).

Experiments:
[1] = Volume of distribution at steady state in rat at 1 mg/kg, iv or 1.3 mg/kg, po; assay type: ADME, organism-based; details: in vivo, read-out: Vdss
[2] = Plasma clearance in rat at 1.3 mg/kg, po; assay type: ADME, organism-based; parameters: dose 1.3 mg/kg, route oral
[3] = AUC (0 to t) in rat at 1.3 mg/kg, po; assay type: ADME, organism-based; parameters: dose 1.3 mg/kg, route oral; details: plasma
[4] = Oral bioavailability in rat at 1.3 mg/kg; assay type: ADME, organism-based; details: in vivo
[5] = Cmax in rat at 1.3 mg/kg, po; assay type: ADME, organism-based; parameters: dose 1.3 mg/kg, route oral; details: in vivo
[6] = Half life in rat at 1.3 mg/kg, po; assay type: ADME, organism-based; parameters: dose 1.3 mg/kg, route oral; details: in vivo
[7] = Oral bioavailability in monkey at 1.6 mg/kg, po; assay type: ADME, organism-based, Macaca mulatta; details: rhesus monkey, in vivo
[8] = Volume of distribution at steady state in rat at 1 mg/kg, iv or 2.2 mg/kg, po; assay type: ADME, organism-based; details: in vivo, read-out: Vdss
[9] = Half life in monkey at 1.6 mg/kg, po; assay type: ADME, organism-based, Macaca mulatta; parameters: dose 1.6 mg/kg, route oral; details: rhesus monkey, in vivo
[10] = Volume of distribution at steady state in monkey at 1 mg/kg, iv or 1.6 mg/kg, po; assay type: ADME, organism-based, Macaca mulatta; details: rhesus monkey, in vivo, read-out: Vdss
[11] = AUC (0 to t) in rat at 2.2 mg/kg, po; assay type: ADME, organism-based; parameters: dose 2.2 mg/kg, route oral; details: plasma
[12] = Cmax in monkey at 1.6 mg/kg, po; assay type: ADME, organism-based, Macaca mulatta; parameters: dose 1.6 mg/kg, route oral; details: rhesus monkey, in vivo
[13] = Cmax in rat at 2.2 mg/kg, po; assay type: ADME, organism-based; parameters: dose 2.2 mg/kg, route oral; details: in vivo
[14] = Plasma clearance in rat at 2.2 mg/kg, po; assay type: ADME, organism-based; parameters: dose 2.2 mg/kg, route oral
[15] = Oral bioavailability in rat at 2.2 mg/kg; assay type: ADME, organism-based; details: in vivo
[16] = AUC (0 to t) in monkey at 1.6 mg/kg, po; assay type: ADME, organism-based, Macaca mulatta; parameters: dose 1.6 mg/kg, route oral; details: rhesus monkey, plasma
[17] = Half life in rat at 2.2 mg/kg, po; assay type: ADME, organism-based; parameters: dose 2.2 mg/kg, route oral; details: in vivo
[18] = Plasma clearance in monkey at 1.6 mg/kg, po; assay type: ADME, organism-based, Macaca mulatta; parameters: dose 1.6 mg/kg, route oral; details: rhesus monkey
[19] = Half life in rat at 0.12 mg/kg, po; assay type: ADME, organism-based; parameters: dose 0.12 mg/kg, route oral; details: in vivo
[20] = Plasma clearance in rat at 0.12 mg/kg, po; assay type: ADME, organism-based; parameters: dose 0.12 mg/kg, route oral
[21] = AUC (0 to t) in rat at 0.12 mg/kg, po; assay type: ADME, organism-based; parameters: dose 0.12 mg/kg, route oral; details: plasma
[22] = Cmax in rat at 0.12 mg/kg, po; assay type: ADME, organism-based; parameters: dose 0.12 mg/kg, route oral; details: in vivo
[23] = Oral bioavailability in rat at 0.12 mg/kg; assay type: ADME, organism-based; details: in vivo
[24] = Volume of distribution at steady state in rat at 1.1 mg/kg, iv or 0.12 mg/kg, po; assay type: ADME, organism-based; details: in vivo, read-out: Vdss
[25] = AUC (0 to t) in rat at 2 mg/kg, po; assay type: ADME, organism-based; parameters: dose 2 mg/kg, route oral; details: plasma
[26] = Plasma clearance in rat at 2.0 mg/kg, po; assay type: ADME, organism-based; parameters: dose 2 mg/kg, route oral
[27] = AUC (0 to t) in monkey at 1.3 mg/kg, po; assay type: ADME, organism-based, Macaca mulatta; parameters: dose 1.3 mg/kg, route oral; details: rhesus monkey, plasma
[28] = Volume of distribution at steady state in monkey at 1 mg/kg, iv or 1.3 mg/kg, po; assay type: ADME, organism-based, Macaca mulatta; details: rhesus monkey, in vivo, read-out: Vdss
[29] = Plasma clearance in monkey at 1.3 mg/kg, po; assay type: ADME, organism-based, Macaca mulatta; parameters: dose 1.3 mg/kg, route oral; details: rhesus monkey
[30] = Cmax in monkey at 1.3 mg/kg, po; assay type: ADME, organism-based, Macaca mulatta; parameters: dose 1.3 mg/kg, route oral; details: rhesus monkey, in vivo
[31] = Oral bioavailability in rat at 2 mg/kg; assay type: ADME, organism-based; details: in vivo
[32] = Half life in rat at 2 mg/kg, po; assay type: ADME, organism-based; parameters: dose 2 mg/kg, route oral; details: in vivo
[33] = Half life in monkey at 1.3 mg/kg, po; assay type: ADME, organism-based, Macaca mulatta; parameters: dose 1.3 mg/kg, route oral; details: rhesus monkey, in vivo
[34] = Oral bioavailability in monkey at 1.3 mg/kg, po; assay type: ADME, organism-based, Macaca mulatta; details: rhesus monkey, in vivo
[35] = Cmax in rat at 2 mg/kg, po; assay type: ADME, organism-based; parameters: dose 2 mg/kg, route oral; details: in vivo
[36] = Volume of distribution at steady state in rat at 1.1 mg/kg, iv or 2 mg/kg, po; assay type: ADME, organism-based; details: in vivo, read-out: Vdss

With `CCN1C[C@@H](N(Cc2cc(F)ccc2Cl)c2ccc(C#N)c(Cl)c2)CC1=O` the Vd [1] was 15 L/kg, the CL/F [2] was 75 mL/min/kg and the AUC(0-t) [3] was 290 ng·h/mL. For the same compound, the bioavailability [4] was 100%, the Cmax [5] was 97 ng/mL and the half-life [6] was 2 h.
For `CN1C[C@@H](N(Cc2cccc(F)c2F)c2ccc(C#N)c(Cl)c2)CC1=O`, the bioavailability [7] was 15%, the Vd [8] was 3.4 L/kg and the half-life [9] was 1.4 h. It also gave a Vd [10] of 1.7 L/kg, an AUC(0-t) [11] of 2300 ng·h/mL and a Cmax [12] of 92 ng/mL. For the same compound, the Cmax [13] was 660 ng/mL, the CL/F [14] was 16 mL/min/kg and the bioavailability [15] was 100%. It also gave an AUC(0-t) [16] of 270 ng·h/mL, a half-life [17] of 6.2 h and a CL/F [18] of 110 mL/min/kg.
For `CC(C)N1C[C@@H](N(Cc2ccccc2Cl)c2ccc(C#N)c(Cl)c2)CC1=O`, the half-life [19] was 5.8 h, the CL/F [20] was 40 mL/min/kg and the AUC(0-t) [21] was 30 ng·h/mL. For the same compound, the Cmax [22] was 10 ng/mL, the bioavailability [23] was 100% and the Vd [24] was 42 L/kg.
Work on `CCN1C[C@@H](N(Cc2cc(Cl)ccc2Cl)c2ccc(C#N)c(Cl)c2)CC1=O` yielded an AUC(0-t) [25] of 150 ng·h/mL, a CL/F [26] of 230 mL/min/kg and an AUC(0-t) [27] of 32 ng·h/mL. For the same compound, the Vd [28] was 2.8 L/kg, the CL/F [29] was 480 mL/min/kg and the Cmax [30] was 15 ng/mL. It also gave a bioavailability [31] of 100%, a half-life [32] of 1.8 h and a half-life [33] of 1.5 h. For the same compound, the bioavailability [34] was 4.9%, the Cmax [35] was 84 ng/mL and the Vd [36] was 35 L/kg.
